Measurements from the NIST ThermoML archive (doi:10.1016/j.jct.2019.01.007).
Values joined by “and” are separate entries in the source; they are usually repeats but may differ in a detail not shown here. Equal entries are not always repeated. ± gives the expanded uncertainty stated by the source.

Conditions: Liquid

CCCCCCCCCCCCCC(=O)OC [methyl tetradecanoate]
Conditions	vapor or sublimation pressure [kPa]
302.71 K	0.0001132 ± 2e-06
305.3 K	0.0001501 ± 2.2e-06
306.14 K	0.0001656 ± 2.3e-06
307.76 K	0.0001949 ± 2.6e-06
308.58 K	0.0002142 ± 2.9e-06
310.23 K	0.0002542 ± 3.4e-06
311.21 K	0.0002813 ± 3.7e-06
312.71 K	0.0003264 ± 4.3e-06
313.7 K	0.0003625 ± 4.7e-06
315.17 K	0.0004199 ± 5.4e-06
316.16 K	0.0004655 ± 6e-06
317.65 K	0.0005357 ± 6.8e-06
318.63 K	0.0005914 ± 7.6e-06
320.12 K	0.0006862 ± 8.7e-06
321.26 K	0.0007623 ± 9.7e-06
322.58 K	0.0008688 ± 1.1e-05
323.72 K	0.0009621 ± 1.2e-05
325.2 K	0.001105 ± 1.4e-05
326.19 K	0.001216 ± 1.5e-05
327.67 K	0.001391 ± 1.7e-05
328.66 K	0.001519 ± 1.9e-05
330.13 K	0.001743 ± 2.2e-05
331.13 K	0.001907 ± 2.4e-05
332.6 K	0.002171 ± 2.7e-05
333.6 K	0.002378 ± 3e-05
335.34 K	0.002751 ± 3.4e-05
336.07 K	0.002936 ± 3.7e-05
337.83 K	0.00341 ± 4.2e-05
338.55 K	0.003626 ± 4.5e-05
340.31 K	0.004207 ± 5.2e-05
341.01 K	0.00447 ± 5.6e-05
342.8 K	0.005171 ± 6.4e-05
343.48 K	0.005466 ± 6.8e-05
345.28 K	0.006333 ± 7.8e-05
345.96 K	0.006695 ± 8.3e-05
347.76 K	0.007722 ± 9.5e-05
348.43 K	0.008134 ± 0.0001
350.25 K	0.009383 ± 0.00012
350.91 K	0.009867 ± 0.00012
352.73 K	0.01136 ± 0.00014
355.48 K	0.01397 ± 0.00021
357.96 K	0.0168 ± 0.00023
360.44 K	0.02019 ± 0.00027
362.92 K	0.02417 ± 0.00032
365.4 K	0.02884 ± 0.00038
367.85 K	0.0341 ± 0.00044
370.34 K	0.0405 ± 0.00052
372.83 K	0.04791 ± 0.00061
375.44 K	0.05668 ± 0.00072
377.92 K	0.06667 ± 0.00084
380.41 K	0.0782 ± 0.00098
382.89 K	0.09144 ± 0.0011
385.37 K	0.1068 ± 0.0013
387.86 K	0.1243 ± 0.0016
390.36 K	0.1443 ± 0.0018
393.01 K	0.1685 ± 0.0021
395.5 K	0.1947 ± 0.0024
397.98 K	0.2245 ± 0.0028
400.45 K	0.2582 ± 0.0032
402.96 K	0.297 ± 0.0037
405.45 K	0.3402 ± 0.0042
407.93 K	0.3881 ± 0.0048
410.41 K	0.4428 ± 0.0055
412.89 K	0.5045 ± 0.0062
415.45 K	0.5764 ± 0.0071
417.93 K	0.6527 ± 0.008
420.4 K	0.7365 ± 0.0091
422.88 K	0.8323 ± 0.01

Transpiration method
Conditions	vapor or sublimation pressure [kPa]
303.05 K	0.000126 ± 2.6e-05
304.65 K	0.000152 ± 3.1e-05
306.05 K	0.000172 ± 3.5e-05
309.15 K	0.000236 ± 4.8e-05
311.15 K	0.00032 ± 6.5e-05
313.15 K	0.00039 ± 7.9e-05
316.25 K	0.000485 ± 9.9e-05
319.25 K	0.000631 ± 0.00013
322.05 K	0.000891 ± 0.00018
325.05 K	0.00116 ± 0.00024
328.25 K	0.00151 ± 0.00031
331.05 K	0.0019 ± 0.00039
333.05 K	0.00252 ± 0.00051
333.15 K	0.00233 ± 0.00048
334.95 K	0.00275 ± 0.00056
338.05 K	0.00359 ± 0.00073
340.05 K	0.00416 ± 0.00085
343.05 K	0.00536 ± 0.0011
344.95 K	0.00629 ± 0.0013
348.05 K	0.00758 ± 0.0015
350.15 K	0.00963 ± 0.002
353.05 K	0.0111 ± 0.0023
355.15 K	0.0133 ± 0.0027
358.05 K	0.0168 ± 0.0034
360.05 K	0.02 ± 0.0041
363.05 K	0.0242 ± 0.0049

CCCCCCCCCC(=O)OC [methyl decanoate]
Conditions	vapor or sublimation pressure
273.35 K	0.0004731 ± 6.1e-06 kPa
273.84 K	0.0004984 ± 6.4e-06 kPa
274.32 K	0.0005246 ± 6.7e-06 kPa
274.8 K	0.0005538 ± 7.1e-06 kPa
275.29 K	0.0005879 ± 7.5e-06 kPa
275.77 K	0.0006152 ± 7.8e-06 kPa
276.26 K	0.0006487 ± 8.3e-06 kPa
276.74 K	0.0006849 ± 8.7e-06 kPa
277.23 K	0.0007225 ± 9.2e-06 kPa
277.71 K	0.0007597 ± 9.7e-06 kPa
278.2 K	0.0008032 ± 1e-05 kPa
278.69 K	0.0008442 ± 1.1e-05 kPa
279.18 K	0.0008873 ± 1.1e-05 kPa
279.66 K	0.0009341 ± 1.2e-05 kPa
280.15 K	0.0009819 ± 1.2e-05 kPa
280.64 K	0.001035 ± 1.3e-05 kPa
281.12 K	0.001093 ± 1.4e-05 kPa
281.47 K	0.001128 ± 1.4e-05 kPa
282.96 K	0.001314 ± 1.7e-05 kPa
283.48 K	0.001386 ± 1.7e-05 kPa
284.46 K	0.001532 ± 1.9e-05 kPa
284.96 K	0.001613 ± 2e-05 kPa
285.43 K	0.001692 ± 2.1e-05 kPa
285.64 K	0.00173 ± 2.2e-05 kPa
285.74 K	0.001743 ± 2.2e-05 kPa
285.95 K	0.001776 ± 2.2e-05 kPa
286.44 K	0.001869 ± 2.3e-05 kPa
286.95 K	0.001967 ± 2.5e-05 kPa
287.44 K	0.002063 ± 2.6e-05 kPa
287.94 K	0.002166 ± 2.7e-05 kPa and 0.002174 ± 2.7e-05 kPa
288.93 K	0.002392 ± 3e-05 kPa
289.31 K	0.002487 ± 3.1e-05 kPa
289.43 K	0.002508 ± 3.1e-05 kPa
290.42 K	0.002759 ± 3.4e-05 kPa
290.53 K	0.002791 ± 3.5e-05 kPa
290.92 K	0.002894 ± 3.6e-05 kPa
291.81 K	0.003154 ± 3.9e-05 kPa
291.92 K	0.003182 ± 4e-05 kPa
292.42 K	0.003341 ± 4.2e-05 kPa
292.9 K	0.003501 ± 4.4e-05 kPa
293.41 K	0.00367 ± 4.6e-05 kPa
293.91 K	0.003845 ± 4.8e-05 kPa
294.3 K	0.00399 ± 5e-05 kPa
294.9 K	0.004224 ± 5.3e-05 kPa
295.4 K	0.004415 ± 5.5e-05 kPa
295.51 K	0.004442 ± 5.5e-05 kPa
295.9 K	0.004625 ± 5.8e-05 kPa
296.39 K	0.004836 ± 6e-05 kPa
296.77 K	0.004989 ± 6.2e-05 kPa
297.39 K	0.005295 ± 6.6e-05 kPa
297.89 K	0.005534 ± 6.8e-05 kPa
297.98 K	0.005566 ± 6.9e-05 kPa
298.88 K	0.006057 ± 7.5e-05 kPa
299.38 K	0.006339 ± 7.9e-05 kPa
300.37 K	0.00692 ± 8.5e-05 kPa
300.46 K	0.006953 ± 8.6e-05 kPa
300.87 K	0.007243 ± 9e-05 kPa
301.87 K	0.007893 ± 9.8e-05 kPa
302.37 K	0.008238 ± 0.0001 kPa
302.84 K	0.008517 ± 0.00011 kPa
302.94 K	0.008627 ± 0.00011 kPa
303.36 K	0.008981 ± 0.00011 kPa
303.76 K	0.009236 ± 0.00012 kPa
303.81 K	0.0093 ± 0.00012 kPa
303.82 K	0.009286 ± 0.00012 kPa and 0.009287 ± 0.00012 kPa
303.86 K	0.00937 ± 0.00012 kPa
304.85 K	0.0102 ± 0.00013 kPa and 0.01021 ± 0.00013 kPa
305.24 K	0.01047 ± 0.00013 kPa
305.26 K	0.01052 ± 0.00013 kPa
305.29 K	0.01057 ± 0.00013 kPa
305.35 K	0.01065 ± 0.00013 kPa
305.42 K	0.01069 ± 0.00013 kPa
307.68 K	0.01286 ± 0.0002 kPa
308.6 K	0.01393 ± 0.00021 kPa
308.64 K	0.014 ± 0.00021 kPa
310.04 K	0.0157 ± 0.00022 kPa
310.06 K	0.01581 ± 0.00022 kPa
310.09 K	0.0158 ± 0.00022 kPa
310.1 K	0.01574 ± 0.00022 kPa
310.14 K	0.01575 ± 0.00022 kPa
312.52 K	0.01912 ± 0.00026 kPa
313.44 K	0.02065 ± 0.00028 kPa
313.47 K	0.0207 ± 0.00028 kPa
314.89 K	0.02316 ± 0.00031 kPa
314.94 K	0.0232 ± 0.00031 kPa
317.35 K	0.02798 ± 0.00037 kPa and 0.02794 ± 0.00037 kPa
317.42 K	0.02817 ± 0.00037 kPa
318.24 K	0.0299 ± 0.00039 kPa
318.28 K	0.03012 ± 0.00039 kPa
319.72 K	0.0337 ± 0.00044 kPa
319.78 K	0.03379 ± 0.00044 kPa and 0.03376 ± 0.00044 kPa
322.16 K	0.04037 ± 0.00052 kPa
322.2 K	0.0406 ± 0.00052 kPa
322.27 K	0.04082 ± 0.00053 kPa
323.11 K	0.04344 ± 0.00056 kPa
324.57 K	0.04813 ± 0.00062 kPa
324.61 K	0.04845 ± 0.00062 kPa
324.63 K	0.04869 ± 0.00062 kPa
327.04 K	0.05787 ± 0.00073 kPa
327.09 K	0.05806 ± 0.00074 kPa
327.93 K	0.06147 ± 0.00078 kPa
327.97 K	0.06194 ± 0.00078 kPa
329.38 K	0.06819 ± 0.00087 kPa
329.43 K	0.06843 ± 0.00088 kPa
329.46 K	0.06916 ± 0.0009 kPa
329.51 K	0.0691 ± 0.00088 kPa
330.86 K	0.07578 ± 0.00095 kPa
331.89 K	0.08137 ± 0.001 kPa
331.9 K	0.08129 ± 0.001 kPa
331.96 K	0.08174 ± 0.001 kPa
332.78 K	0.08635 ± 0.0011 kPa
334.24 K	0.09568 ± 0.0012 kPa
334.28 K	0.09573 ± 0.0012 kPa
334.33 K	0.09658 ± 0.0012 kPa and 0.09631 ± 0.0012 kPa
334.38 K	0.09672 ± 0.0012 kPa
335.68 K	0.1054 ± 0.0013 kPa
336.74 K	0.1133 ± 0.0014 kPa
336.79 K	0.1135 ± 0.0014 kPa
337.62 K	0.1198 ± 0.0015 kPa
339.09 K	0.1322 ± 0.0017 kPa
339.17 K	0.1333 ± 0.0017 kPa
339.24 K	0.1341 ± 0.0017 kPa
340.51 K	0.1449 ± 0.0018 kPa
340.55 K	0.1456 ± 0.0018 kPa
341.5 K	0.1546 ± 0.0019 kPa
341.58 K	0.1555 ± 0.0019 kPa
341.63 K	0.1564 ± 0.002 kPa
341.66 K	0.157 ± 0.002 kPa
348.04 K	0.2325 ± 0.0029 kPa
352.92 K	0.3135 ± 0.0039 kPa
357.8 K	0.4166 ± 0.0051 kPa
362.67 K	0.5493 ± 0.0068 kPa
367.55 K	0.7207 ± 0.0089 kPa
372.43 K	0.9271 ± 0.011 kPa
374.86 K	1.054 ± 0.013 kPa
377.3 K	1.195 ± 0.015 kPa
